Measurements taken from patent publication US7939554B2, “Protein phosphatase inhibitors” (The Cleveland Clinic Foundation, priority 2006, dated 2011).

Assays:
B16 melanoma cells = assay: B16 melanoma cell growth in culture (MTT assay); type: cell-based, mouse; settings: 6 days; FIG. 13C
Protocol: Data represent mean±SD of triplicate samples. […] Tumor volumes were recorded as indicated. C, Athymic nude mice bearing 4-day-established B16 tumors were subjected to differential treatments as in B. Tumor volumes were recorded as indicated.
L5, L6 and L6 analogs (Chembridge), mouse IFNγ ELISPOT Kit (R & D System) and antibody against pLck-pY394 or pERK1/2 (Cell Signaling) were purchased from commercial sources. Human Jurkat T cell line and murine B16 melanoma cell line (ATCC) and other cancer cell lines were maintained in […] culture medium supplemented with 10% fetal calf serum (FCS). The effects of chemical compounds on cancer cell growth in culture were quantified by MTT assays following our established procedures.

mouse splenocytes = assay: induction of IFNγ+ cells in mouse splenocytes in vitro (ELISPOT); type: cell-based; settings: 1 μg/ml; FIG. 11
Protocol: The splenocytes were cultured in RPMI 1640 medium supplemented with 10% FCS in the absence or presence of designated agents for 16 hrs in flat-bottom 96-well plates coated with a monoclonal antibody specific for mouse IFNγ (mouse IFNγ ELISPOT Kit, R & D System). The plates were then processed for in situ detection of IFNγ+ cells by ELISA following the manufacturer's procedure. Scanning and counting of IFNγ+ cells in the plates were accomplished using an automatic ELISPOT reader with Immunospot2 software (Cellular Technology Ltd). Mouse splenocytes were also untreated or treated with agents for 16 hrs in culture dishes and then stained with appropriate isotype control antibodies or FICT-labeled anti-CD3 monoclonal antibody (BD) plus PE-labeled monoclonal antibody (BD) for intracellular IFNγ following established procedures. The stained samples were washed 3 times, re-suspended in 200 μl of 1% para-formaldehyde solution and analyzed (20,000 cells/sample) using a BD FACS Caliburs cytometer and WinList software.
The splenocytes were cultured in RPMI 1640 medium supplemented with 10% FCS in the absence or presence of designated agents for 16 hrs in flat-bottom 96-well plates coated with a monoclonal antibody specific for mouse IFNγ (mouse IFNγ ELISPOT Kit, R & D System). The plates were then processed for in situ detection of IFNγ+ cells by ELISA following the manufacturer's procedure. Scanning and counting of IFNγ+ cells in the plates were accomplished using an automatic ELISPOT reader with Immunospot2 software (Cellular Technology Ltd).

recombinant SHP-1 = target: T1, recombinant SHP-1 (Homo sapiens, UniProt P29350); assay: rapid in vitro SHP-1 PTPase assay (DIFMUP fluorescence substrate); type: biochemical; settings: for inhibition of phosphatase activity of recombinant SHP-1: L5 and analogs, 1 μg/well, FIG. 12A
T1 construct: Recombinant protein of SHP-1 PTPase catalytic domain was described
T1 sequence (P29350 244-515 limits assumed): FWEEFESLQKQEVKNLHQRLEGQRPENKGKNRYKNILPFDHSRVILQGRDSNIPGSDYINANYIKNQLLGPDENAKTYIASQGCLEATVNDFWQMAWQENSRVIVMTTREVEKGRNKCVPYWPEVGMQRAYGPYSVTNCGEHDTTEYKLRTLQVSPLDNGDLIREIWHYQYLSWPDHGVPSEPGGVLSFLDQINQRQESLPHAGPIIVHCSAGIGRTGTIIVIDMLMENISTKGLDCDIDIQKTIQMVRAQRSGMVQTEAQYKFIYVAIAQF
Protocol: Recombinant protein of SHP-1 PTPase catalytic domain was described and stored in Tris buffer (25 mM Tris, pH7.5, 1 mM EDTA, 2 μM 2-ME, 25% glycerol) at −80° C. Fluorescence substrate DIFMUP (6,8-difluoro-4 methylumbelliferyl phosphate) was purchased (Molecular Probes). SSG was reported previously (21-23) and stored at 4° C. in darkness prior to use. Human and mouse IFNγ ELISPOT Kit (R & D System), CD4^+ Cell Intracellular IFNγ Detection Kit (BD Bioscience) and CD8^+ Cell Intracellular IFNγ Detection Kit (BD Bioscience) were purchased from commercial sources. Human Jurkat T cell line (26) and murine B16 melanoma cell line (ATCC) were maintained in […] culture medium supplemented with 10% fetal calf serum (FCS). Antibodies against pLck-pY394 (Cell Signaling), pLck-pY505 (Cell Signaling), pZap70 (pY319, BD Biosciences), pSlp76 (pY128, BD Biosciences) and pLat (pY226, BD Biosciences) were purchased from commercial sources.
A rapid SHP-1 PTPase assay was developed for screening the compounds in a commercial library of 34,000 drug-like small chemicals (Chembridge, Mass.). Briefly, compounds of the library (1 μg/well in […]) were placed in 96-well plates (Falcon, 353072) and mixed with recombinant SHP-1 protein (0.1 μg/well) in […] of HEPES buffer (50 mM HEPS, pH 7.5, 150 mM NaCl, 1 mM EDTA, 0.2 mM DTT and 0.1 mg/ml BSA). The plates were incubated at room temperature for 10 minutes prior to the addition of fluorescence substrate DIFMUP (40 μM stock in HEPES buffer, 10 μl/well) to initiate PTPase reaction. Upon completion of PTPase reaction at room temperature for 1 hr in darkness, fluorescence signal of individual wells were recorded using a Vector^2 Multilabel Counter (Vector, CA). They were compared to that of control SHP-1 PTPase reaction (˜10,000 units of fluorescence signal) in the absence of any compound (100%) for calculating relative SHP-1 inhibition induced by the compounds after subtracting the background signal (˜500 units of fluorescence signal) of the substrate.
To evaluate their SHP-1 inhibitory activity, the analogs (1 μg/well in 0.2 μl DMSO) were aliquot individually to 96-well plates (Falcon, 353072) and mixed with recombinant SHP-1 protein (0.1 μg/well) in 90 μl of HEPES buffer (50 mM HEPS, pH 7.5, 150 mM NaCl, 1 mM EDTA, 0.2 mM DTT and 0.1 mg/ml BSA). The plates were incubated at room temperature for 10 minutes prior to the addition of fluorescence substrate DIFMUP (40 μM stock in HEPES buffer, 10 μl/well) to initiate PTPase reaction. Upon completion of PTPase reaction at room temperature for 1 hr in darkness, fluorescence signal of individual wells were recorded using a Vector^2 Multilabel Counter (Vector, CA). […]

[1] = system: CD3+ and CD3- IFNγ+ splenocytes; assay: spleno-IFNγ+ cells in B16 tumor mice (CD3/intracellular IFNγ FACS); type: in vivo, mouse; settings: 1 mg/kg oral, day 22
Protocol: Splenocytes from mice untreated or treated with L5a2 were stained with appropriate isotype control antibodies or FICT-labeled anti-CD3 monoclonal antibody (BD) plus PE-labeled monoclonal antibody (BD) for intracellular IFNγ following established procedures. The stained samples were washed 3 times, re-suspended in 200 μl of 1% para-formaldehyde solution and analyzed (20,000 cells/sample) using a BD FACS Caliburs cytometer and FlowJoe software.
To gain further insights into the mechanism of action in L5a2 in vivo, spleens were harvested from the B16 tumor mice in the control and the L5a2-treated groups (FIG. 13A) on day 22 to assess whether L5a2 induced IFNγ+ cells in the tumor-bearing mice. It was also determined whether the induced-IFNγ+ cells were of CD3+ T lymphocytes, which were activated TH1 critical for anti-tumor immunity. Splenocytes were prepared and co-stained for intracellular IFNγ and the T cell surface marker CD3 for quantification of IFNγ+ T cells by flow cytometry.

SHP-2 = target: T2, SHP-2 (Homo sapiens, UniProt Q06124); assay: SHP-2 inhibition by SSG (applicant's earlier studies); settings: recombinant and intracellular SHP-2
T2 sequence (Q06124 1-593): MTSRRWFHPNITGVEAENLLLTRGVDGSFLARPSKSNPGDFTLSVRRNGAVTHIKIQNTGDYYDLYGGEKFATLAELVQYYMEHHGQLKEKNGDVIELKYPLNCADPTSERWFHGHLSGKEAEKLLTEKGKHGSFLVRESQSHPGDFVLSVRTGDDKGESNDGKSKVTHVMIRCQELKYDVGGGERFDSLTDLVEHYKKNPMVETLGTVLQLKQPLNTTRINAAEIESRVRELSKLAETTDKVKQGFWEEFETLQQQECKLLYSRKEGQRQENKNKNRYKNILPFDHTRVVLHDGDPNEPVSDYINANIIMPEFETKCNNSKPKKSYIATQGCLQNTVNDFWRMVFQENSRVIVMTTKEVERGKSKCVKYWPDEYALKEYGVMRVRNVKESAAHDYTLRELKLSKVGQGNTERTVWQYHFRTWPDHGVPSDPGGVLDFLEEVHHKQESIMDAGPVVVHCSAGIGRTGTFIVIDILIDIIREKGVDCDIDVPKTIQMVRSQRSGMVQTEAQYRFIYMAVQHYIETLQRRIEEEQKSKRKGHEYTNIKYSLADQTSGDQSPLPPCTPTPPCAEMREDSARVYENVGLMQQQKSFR

intracellular SHP-1 = target: T3, intracellular SHP-1 (Homo sapiens, UniProt P29350); assay: tyrosine phosphorylation of SHP-1 substrates in Jurkat cells (SDS-PAGE/Western blotting, densitometry); type: cell-based
T3 construct: endogenous in cells; host or cells: Jurkat
T3 sequence (P29350 whole entry): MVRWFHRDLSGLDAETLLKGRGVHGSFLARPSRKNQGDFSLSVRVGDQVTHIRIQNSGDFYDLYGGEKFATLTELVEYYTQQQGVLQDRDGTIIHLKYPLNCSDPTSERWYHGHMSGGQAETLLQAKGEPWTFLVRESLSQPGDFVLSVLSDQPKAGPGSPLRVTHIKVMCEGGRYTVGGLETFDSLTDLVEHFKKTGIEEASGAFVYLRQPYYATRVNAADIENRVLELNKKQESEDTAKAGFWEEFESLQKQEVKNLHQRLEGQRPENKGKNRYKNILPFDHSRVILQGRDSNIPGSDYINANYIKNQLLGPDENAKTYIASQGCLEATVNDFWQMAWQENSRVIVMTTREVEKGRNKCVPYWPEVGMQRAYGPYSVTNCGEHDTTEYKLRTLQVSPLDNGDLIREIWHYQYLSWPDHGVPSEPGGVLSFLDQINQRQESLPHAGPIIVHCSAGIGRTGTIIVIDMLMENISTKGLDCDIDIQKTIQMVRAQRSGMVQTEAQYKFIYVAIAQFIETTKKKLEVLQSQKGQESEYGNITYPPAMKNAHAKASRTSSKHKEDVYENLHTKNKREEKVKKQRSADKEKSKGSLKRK
Protocol: (§1) Jurkat cells in culture medium (3×10^6 cells/ml, 1 ml/tube) were treated with agents for designated times at room temperature. After brief centrifuging in a microfuge (4,000 rpm, 2 min), the cell pellet was lysed on ice for 30 min in 1001 of cold lysis buffer (1% NP40, 50 mM Tris, pH 7.4, 150 mM NaCl, 20 mM NaF, 0.2 mM Na3VO4 and 1 mM Na3MO4) containing a cocktail of proteinase inhibitors (Sigma, 1 tablet/10 ml). The lysates were cleared by centrifuging (14,000 rpm, 10 min) in a microfuge at 4° C. to remove insoluble parts, mixed with equal volume of 2×SDS-PAGE sample buffer, boiled for 5 min and analyzed (˜3×10^5 cells/well) by SDS-PAGE/Western blotting. Relative intensities of phosphotyrosine bands were quantified through densitometry analysis.
as §1, with “100 μl” for “1001”, “blotting as described previously (23, 24).” for “blotting.”
as §1, with “100 μl” for “1001”, “blotting as described previously (17, 18).” for “blotting.”

Protocol for B16 melanoma tumors: Tumor volume (n=5) was measured during the study period and calculated using the formula for a prolate spheroid. Student's t test was used for assessing the significance of tumor volume differences among differential treatment groups. Mouse viability (daily) and body weights (weekly) were also recorded during the study period. Major internal organs of the mice were inspected visually upon their termination at the end of the experiment.
To assess anti-tumor activity, C57BL/6J mice (˜8-week old, female, Taconic Farms, Germantown, N.Y.) were inoculated (s. c.) at the flanks with B16 melanoma cells (4×10^4 cells/site). […] Tumor volume (n=5) was measured during the study period and calculated using the formula for a prolate spheroid. Student's t test was used for assessing the significance of tumor volume differences among differential treatment groups. Mouse viability (daily) and body weights (weekly) were also recorded during the study period. Major internal organs of the mice were inspected visually upon their termination at the end of the experiment.

| Compound | inhibition of B16 melanoma cells in culture (B16 melanoma cells) | B16 tumor growth inhibition versus control (B16 melanoma tumors; 1 mg/kg/daily, M-F/wk, oral, day 22) [%] | tolerance of treated tumor mice (behavior, gross anatomy) (B16 melanoma tumors; mouse, in vivo) | induction of IFNγ+ cells (mouse splenocytes) [fold] | inhibition of phosphatase activity of recombinant SHP-1 (recombinant SHP-1) | increase of CD3+ IFNγ+ cells [1] [fold] | increase of CD3- IFNγ+ cells [1] [fold] | level at which SHP-2 is inhibited (SHP-2) [µg/mL] | level at which SHP-1 is inhibited (recombinant SHP-1; recombinant and intracellular SHP-1) [µg/mL] | pLck-pY394 induction (intracellular SHP-1; 10 μg/ml, 10 min) [fold] | dose effective in inducing pLck-pY394 (lowest / only effective dose) (intracellular SHP-1; 10 min treatment) [μg/ml] | level active against intracellular SHP-1 (intracellular SHP-1; Jurkat T cells, molar equivalent) [µM] | pLck-pY394 induction (intracellular SHP-1; lower (1 μg/ml) or higher (100 μg/ml) doses) |
| --- | --- | --- | --- | --- | --- | --- | --- | --- | --- | --- | --- | --- | --- |
| O=C1C=CC(=O)C(c2cccc(Cl)c2)=C1 [L5a2] | failed to inhibit | ~75 | no apparent abnormality | ~20 | completely or almost completely inhibited | ~4.5 | 1.3 | – | – | – | – | – | – |
| O=C1C=C(c2ccccc2)C(=O)c2ccccc21 [L5a3] | – | – | – | – | ~80% | – | – | – | – | – | – | – | – |
| O.O.O.O.O.O.O.O.O.O=C([O-])[C@@H]1[O][Sb]2([O-])([O][Sb]34([OH])[O][C@H]([C@H](O)CO)[C@H]([O]3)[C@H](C(=O)[O-])[O]4)[O][C@H]([C@H](O)CO)[C@@H]1[O]2.[Na+].[Na+].[Na+] [SSG, Sodium Stibogluconate, reference compound] | – | – | – | – | – | – | – | 10 | 10 | ~2 | 10 | ~14 | failed |
